According to EP1370663B1, “MICROBIOLOGICAL METHOD FOR PRODUCING L-CARNITINE” (priority 2001, dated 2002):

Key:
[1] = Control: storage of butyrobetaine esters in the medium without cells (hydrolytic stability); format: physicochemical; conditions: same medium and conditions as Example 2 (30°C, 74 h) but without cells
Protocol: Die Stämme HK13 (DSM 2903) und HK1349 (DSM 3944) wurden jeweils in "Nutrient Yeast broth" Vorkulturmedium (10 mL), welchem L-Carnitin (0,05% (w/v)) als Induktor des L-Carnitinstoffwechsels zugesetzt wurde, überimpft und 2 Tage bei 30°C und 140 upm inkubiert. Die Vorkulturen (0,01 mL) wurde in das Minimalmedium (10 mL), welches zusätzlich 0,02% (w/v) Betain, 0,05% (v/v) Glycerin, 0,50% (w/v) L-Glutamat und entweder 0,75% (w/v) Butyrobetain-methylester (BBMe) oder 0,75% (w/v) Butyrobetain-ethylester (BBEt) enthielt, überimpft und bei 30°C und 140 upm inkubiert. Nach 40 h betrug die OD650 von beiden Kulturen ca. 9,0 und die Kulturen befanden sich in der stationären Phase. Nach weiteren 34 h wurden Proben entnommen. Die Zellen wurden zentrifugiert (11 000 upm, 5 min) und der Überstand wurde mittels HPLC auf den Gehalt an Butyrobetain, L-Carnitin und nicht umgesetzten Butyrobetain-ester untersucht. Die Ergebnisse sind in Tabelle 2 zusammengefasst. Als Kontrollversuch wurden Butyrobetain-methylester (BBMe) und Butyrobetain-ethylester (BBEt) jeweils im gleichen Medium und unter den gleichen Bedingungen, jedoch ohne Zusatz von Zellen, gelagert. […]

[2] = test system: Stamm HK4 (DSM 2938); experiment: Growth of strain HK4 on butyrobetaine esters or butyrobetaine as sole C source; format: cell-based, Agrobacterium/Rhizobium HK4 (DSM 2938); conditions: 30°C, 140 upm, 48 to 96 h
Protocol: Der Stamm HK4 (DSM 2938) wurde auf Minimalmedium Agarplatten unter Zusatz von 0,4% (w/v) Betain als einziger C-Quelle nach Einzelkolonie-Ausstrich bei 30°C für 48 bis 72 h inkubiert. Zur Anzucht wurden Einzelkolonien des Stammes von der Agarplatte in das Minimalmedium enthaltend Butyrobetain-methylester (BBMe) und Butyrobetain-ethylester (BBEt) als jeweils einziger C-Quelle überimpft und bei 30°C und 140 upm für 48 bis 96 h inkubiert. Es wurde ein Kontrollversuch durchgeführt, bei dem die Anzucht des Stammes HK4 (DSM 2938) unter den gleichen Bedingungen, jedoch unter Zusatz von Butyrobetain anstelle eines Butyrobetain-esters als einziger C-Quelle, erfolgte.

[3] = test system: Hydrolasen im Zellextrakt des Stammes HK1349 (DSM 3944); experiment: Substrate specificity of the hydrolases of HK1349 (pH-stat titration); format: biochemical, Agrobacterium/Rhizobium HK1349 (DSM 3944); conditions: 5% (v/v) ester emulsion, 37°C; for Spezifische Hydrolase-Aktivität [U/mg Protein]: lyophilised Triton X-114 supernatant of HK1349; for Relative spezifische Hydrolase-Aktivität [%]: 100% = 0,039 U/mg Protein
Protocol: Die gemäss Beispiel 4.1. erhaltene Zellsuspension (HK1349 (DSM 3944), OD650 nm 37, 50 mM Natriumphosphat-Puffer, pH 7,5) wurde durch 10 minütige Behandlung mit Ultraschall unter Eisbadkühlung aufgeschlossen, mit Triton X-114 (5% (v/v); 30 min; 25°C) inkubiert und dann zentrifugiert (4 000 upm; 10 min; 4°C). Der Überstand wurde lyophilisiert. Der lyophilisierte Überstand (100 mg) wurde in Natriumphosphatpuffer (50 mM; pH 7,5; 1,0 mL) gelöst und zu Emulsionen von Essigsäure-ethylester, Buttersäure-ethylester und Buttersäure-methylester (5% (v/v) Ester emulgiert mittels eines Ultraturrax in destilliertem Wasser enthaltend 2% (w/v) Gummi arabicum; 20 mL) bei 37°C gegeben. Die bei der Hydrolyse des Esters freigesetzte Säure wird mit NaOH (0,01 M) unter Verwendung eines pH-Stats titriert. 1 U (Unit) entspricht der Menge an Säure (in µmol), die pro Minute freigesetzt wird. Die höchste spezifische Hydrolase-Aktivität (0,039 U/mg Protein) wurde als 100%-Wert betrachtet. Die Ergebnisse sind in Tabelle 5 zusammengestellt.

[4] = test system: Hydrolasen im Zellextrakt des Stammes HK1349 (DSM 3944); experiment: Hydrolase activity of HK1349 supernatant after cell disruption and treatment with detergents (4-nitrophenyl acetate assay); format: biochemical, Agrobacterium/Rhizobium HK1349 (DSM 3944); conditions: supernatant after cell disruption and treatment with 5% (v/v) detergent, 30 min, 25°C; 100% = 0,30 U/mg Protein
Protocol: Die Bestimmung der Hydrolase-Aktivität erfolgte photometrisch mittels Essigsäue-4-nitrophenylester-Assay. Hierzu wurde die Proteinlösung (900 µL) mit einer Lösung von Essigsäure-4-nitrophenylester (10 mM in Dimethylsulfoxid; 100 µL) bei 25°C versetzt. Die Absorption des während der Hydrolyse gebildeten 4-Nitrophenols (e = 15 × 10^3 × M^-1 cm^-1) wurde bei 410 nm gemessen. 1 Unit (U) entspricht der Menge 4-Nitrophenol (in µmol), die pro Minute freigesetzt wird. Die Bestimmung des Proteingehaltes der eingesetzten Proteinlösung erfolgte mit dem BCA (Bicin choninic acid) Protein Assay kit (Pierce) nach Anleitung des Herstellers. Die spezifische Hydrolase-Aktivität wird angegeben in U/mg Protein und entspricht der Menge 4-Nitrophenol (in µmol), die pro Minute und mg Protein freigesetzt wird.
Die gemäss Beispiel 4.1. erhaltene Zellsuspension (HK1349 (DSM 3944), OD650 nm 37, 50 mM Natriumphosphat-Puffer, pH 7,5) wurde durch 10 minütige Behandlung mit Ultraschall unter Eisbadkühlung aufgeschlossen, mit verschiedenen Detergentien (5% (v/v) Detergenz; 30 min; 25°C) inkubiert und die Zelltrümmer wurden abzentrifugiert (4 000 upm; 10 min; 4°C). Die spezifische Hydrolase-Aktivität der Überstände wurde mittels Essigsäure-4-nitrophenylester-Assay bestimmt. Die höchste spezifische Hydrolase-Aktivität (0,30 U/mg Protein) wurde als 100%-Wert betrachtet. Die Ergebnisse sind in Tabelle 4 zusammengestellt. Die höchste spezifische Hydrolase-Aktivität wurde unter Verwendung von Triton X-114 beobachtet.

[5] = 1,0 % (w/v) as sole C source in minimal medium

Molecule	Wachstum [OD650] [2, 5]	Spezifische Hydrolase-Aktivität [U/mg Protein] [3]	Relative spezifische Hydrolase-Aktivität [%] [3]	Relative spezifische Hydrolase-Aktivität [%] [4]	other results
CCOC(=O)CCC[N+](C)(C)C [BBEt, Butyrobetain-ethylester]	0,76 OD650	–	–	–	Hydrolyse der Butyrobetain-ester zu Butyrobetain [1]: keine Hydrolyse; Wachstum [OD650] ([2]; 0,2 % (w/v) as sole C source in minimal medium): 0,23 OD650
COC(=O)CCC[N+](C)(C)C [BBMe, Butyrobetain-methylester]	0,76 OD650	–	–	–	Hydrolyse der Butyrobetain-ester zu Butyrobetain [1]: keine Hydrolyse
CCCC(=O)OCC [Buttersäure-Ethylester]	–	0,028 U/mg Protein	72%	–	–
CCCC(=O)OC [Buttersäure-Methylester]	–	0,038 U/mg Protein	97%	–	–
C[N+](C)(C)CCCC(=O)[O-] [Butyrobetain]	7,0 OD650	–	–	–	–
CCOC(C)=O [Essigsäure-Ethylester]	–	0,039 U/mg Protein	100%	–	–
CCCCCCCCCCCCOS(=O)(=O)O [SDS]	–	–	–	26%	–
CCCCCCCC/C=C\CCCCCCCC(=O)OCCOCC(OCCO)C1OCC(OCCO)C1OCCO (stereo not drawn) [Tween 80]	–	–	–	80%	–
Triton X-100	–	–	–	64%	–
